Test [1] deals with HL-60. The experiment in a line: Antiproliferative activity against p53-null human HL-60 cells assessed as induction of cell death incubated for 48 hrs in presence of nicotinamide mononucleotide by resazurin dye based fluorescence analysis. It is filed as functional. The conditions noted are these: read-out: LD50 (the source's name). (In general: The colour change of resazurin is a common sign of viable cells or microbes.)

For test [2], the system named is MV4-11. The experiment in a line: Antiproliferative activity against human MV4-11 cells harboring wild type p53 assessed as induction of cell death incubated for 48 hrs by resazurin dye based fluorescence analysis. It is filed as functional. The conditions noted are these: read-out: LD50 (the source's name).
For test [3], the target named is T1, Histone deacetylase 8 (Homo sapiens, UniProt Q9BY41).
T1 sequence (Q9BY41 whole entry): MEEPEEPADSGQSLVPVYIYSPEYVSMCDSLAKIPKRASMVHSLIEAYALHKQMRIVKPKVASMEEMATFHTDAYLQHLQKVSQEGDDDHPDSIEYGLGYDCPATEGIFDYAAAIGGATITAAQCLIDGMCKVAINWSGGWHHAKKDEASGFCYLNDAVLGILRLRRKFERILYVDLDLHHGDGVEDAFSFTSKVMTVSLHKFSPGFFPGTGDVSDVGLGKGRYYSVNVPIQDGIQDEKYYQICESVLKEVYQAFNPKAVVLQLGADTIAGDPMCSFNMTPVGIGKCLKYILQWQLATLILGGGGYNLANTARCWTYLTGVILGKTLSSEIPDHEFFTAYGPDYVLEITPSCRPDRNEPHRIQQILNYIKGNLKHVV
The experiment in a line: Inhibition of C-terminal His-tagged full length human recombinant HDAC8 (1 to 377 residues) expressed in baculovirus-infected Sf9 cells using Boc-Lys-(trifluoroacetyl)-AMC as substrate preincubated with enzyme for 1 hr followed by substrate addition and measured after 2 hrs by fluorescence analysis.

Test [4] has as its system MV4-11. The experiment in a line: cells. It is filed as functional, cell-based. The conditions noted are these: Homo sapiens; for GI50: MV4-11, time 48 hrs.
Test [5] concerns HL-60. The experiment in a line: Antiproliferative activity against p53-null human HL-60 cells assessed as inhibition of cell growth incubated for 48 hrs by resazurin dye based fluorescence analysis. It is filed as functional.
For test [6], the target named is T2, Histone deacetylase 7 (Homo sapiens, UniProt Q8WUI4).
T2 sequence (Q8WUI4 whole entry): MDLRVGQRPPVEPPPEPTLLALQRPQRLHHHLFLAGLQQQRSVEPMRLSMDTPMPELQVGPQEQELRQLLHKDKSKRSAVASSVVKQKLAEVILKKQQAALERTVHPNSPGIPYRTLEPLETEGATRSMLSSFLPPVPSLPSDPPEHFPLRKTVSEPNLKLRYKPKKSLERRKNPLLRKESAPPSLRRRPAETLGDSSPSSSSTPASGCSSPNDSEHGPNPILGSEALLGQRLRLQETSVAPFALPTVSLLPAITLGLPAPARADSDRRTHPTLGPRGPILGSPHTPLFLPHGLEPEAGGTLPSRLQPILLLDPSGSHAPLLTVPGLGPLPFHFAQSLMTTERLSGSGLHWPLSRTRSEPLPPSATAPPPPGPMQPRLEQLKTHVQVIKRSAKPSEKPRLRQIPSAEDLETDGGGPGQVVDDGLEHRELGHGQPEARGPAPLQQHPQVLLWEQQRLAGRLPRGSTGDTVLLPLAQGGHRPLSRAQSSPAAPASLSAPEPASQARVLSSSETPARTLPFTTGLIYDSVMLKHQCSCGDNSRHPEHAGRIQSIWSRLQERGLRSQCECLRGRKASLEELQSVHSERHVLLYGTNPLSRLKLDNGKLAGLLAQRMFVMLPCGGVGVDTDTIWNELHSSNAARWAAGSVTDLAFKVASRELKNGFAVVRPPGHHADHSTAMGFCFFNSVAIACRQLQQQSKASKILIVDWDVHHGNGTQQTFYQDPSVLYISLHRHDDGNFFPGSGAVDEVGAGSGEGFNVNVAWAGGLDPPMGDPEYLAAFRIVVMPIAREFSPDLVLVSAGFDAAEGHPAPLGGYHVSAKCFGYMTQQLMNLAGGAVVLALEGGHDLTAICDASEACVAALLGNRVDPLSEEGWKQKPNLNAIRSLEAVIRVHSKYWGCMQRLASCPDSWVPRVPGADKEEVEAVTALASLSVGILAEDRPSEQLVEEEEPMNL
The experiment in a line: Inhibition of N-terminal GST-tagged human HDAC7 (518 to end residues) expressed in baculovirus-infected Sf9 cells using Boc-Lys-(trifluoroacetyl)-AMC as substrate preincubated with enzyme for 1 hr followed by substrate addition and measured after 2 hrs by fluorescence analysis.

In test [7] the target is T3, Histone deacetylase 11 (Homo sapiens, UniProt Q96DB2).
T3 sequence (Q96DB2 whole entry): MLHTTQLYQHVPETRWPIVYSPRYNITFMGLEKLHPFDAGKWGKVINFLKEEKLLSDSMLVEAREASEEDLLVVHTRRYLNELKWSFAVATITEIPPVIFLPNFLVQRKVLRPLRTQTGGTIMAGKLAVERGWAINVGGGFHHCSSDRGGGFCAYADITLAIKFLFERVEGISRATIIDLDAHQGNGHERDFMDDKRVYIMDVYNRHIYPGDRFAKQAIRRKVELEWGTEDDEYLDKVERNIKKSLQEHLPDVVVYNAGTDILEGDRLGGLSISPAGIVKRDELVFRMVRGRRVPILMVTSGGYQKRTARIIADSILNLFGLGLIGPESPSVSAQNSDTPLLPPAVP
The experiment in a line: Inhibition of full length human recombinant HDAC11 (1 to 347 residues) expressed in baculovirus-infected Sf9 cells using Boc-Lys-(trifluoroacetyl)-AMC as substrate preincubated with enzyme for 1 hr followed by substrate addition and measured after 2 hrs by fluorescence analysis.

For test [8], the target named is Histone deacetylase 9 (Homo sapiens, UniProt Q9UKV0). The experiment in a line: Inhibition of C-terminal His-tagged human recombinant HDAC9 (604 to 1066 residues) expressed in baculovirus-infected Sf9 cells using Boc-Lys-(trifluoroacetyl)-AMC as substrate preincubated with enzyme for 1 hr followed by substrate addition and measured after 2 hrs by fluorescence analysis.

Test [9] addresses Histone deacetylase 5 (Homo sapiens, UniProt Q9UQL6). The experiment in a line: Inhibition of C-terminal His-tagged human HDAC5 catalytic domain (656 to 1122 residues) expressed in baculovirus-infected Sf9 cells using Boc-Lys-(trifluoroacetyl)-AMC as substrate preincubated with enzyme for 1 hr followed by substrate addition and measured after 2 hrs by fluorescence analysis.
Test [10] concerns the target Histone deacetylase 4 (Homo sapiens, UniProt P56524). The experiment in a line: Inhibition of C-terminal His-tagged/N-terminal GST-tagged human HDAC4 (627 to 1084 residues) expressed in baculovirus-infected Sf9 cells using Boc-Lys-(trifluoroacetyl)-AMC as substrate preincubated with enzyme for 1 hr followed by substrate addition and measured after 2 hrs by fluorescence analysis.

Structures are written as SMILES.

Histone deacetylase 9, sequence (Q9UKV0 whole entry, the tested form may be a part): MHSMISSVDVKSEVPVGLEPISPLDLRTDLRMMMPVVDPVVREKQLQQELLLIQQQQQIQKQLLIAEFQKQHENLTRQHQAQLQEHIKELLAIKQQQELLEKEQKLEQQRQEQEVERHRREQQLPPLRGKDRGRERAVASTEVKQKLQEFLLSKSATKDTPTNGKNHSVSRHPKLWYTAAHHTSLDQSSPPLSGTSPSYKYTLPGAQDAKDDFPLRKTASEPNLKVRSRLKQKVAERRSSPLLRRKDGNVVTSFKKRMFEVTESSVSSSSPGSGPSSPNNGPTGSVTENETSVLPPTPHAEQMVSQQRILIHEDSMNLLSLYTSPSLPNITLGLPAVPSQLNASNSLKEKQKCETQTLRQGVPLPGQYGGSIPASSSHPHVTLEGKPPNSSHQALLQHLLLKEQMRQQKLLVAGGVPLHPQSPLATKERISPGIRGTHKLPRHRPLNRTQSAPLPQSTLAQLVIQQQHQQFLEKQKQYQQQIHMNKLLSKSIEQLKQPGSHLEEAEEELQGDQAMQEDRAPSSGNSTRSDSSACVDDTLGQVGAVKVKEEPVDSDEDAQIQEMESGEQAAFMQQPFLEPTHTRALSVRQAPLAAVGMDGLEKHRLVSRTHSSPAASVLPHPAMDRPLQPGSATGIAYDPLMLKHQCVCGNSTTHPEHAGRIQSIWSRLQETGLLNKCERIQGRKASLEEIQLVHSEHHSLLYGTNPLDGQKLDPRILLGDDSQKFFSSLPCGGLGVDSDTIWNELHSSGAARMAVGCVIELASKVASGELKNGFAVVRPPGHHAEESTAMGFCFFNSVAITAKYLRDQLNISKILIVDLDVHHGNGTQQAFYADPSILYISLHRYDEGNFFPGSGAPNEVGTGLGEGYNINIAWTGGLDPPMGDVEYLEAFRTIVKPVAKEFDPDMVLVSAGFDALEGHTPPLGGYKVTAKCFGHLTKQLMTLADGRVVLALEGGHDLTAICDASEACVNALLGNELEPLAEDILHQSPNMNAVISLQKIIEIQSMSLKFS
Histone deacetylase 4, sequence (P56524 whole entry, the tested form may be a part): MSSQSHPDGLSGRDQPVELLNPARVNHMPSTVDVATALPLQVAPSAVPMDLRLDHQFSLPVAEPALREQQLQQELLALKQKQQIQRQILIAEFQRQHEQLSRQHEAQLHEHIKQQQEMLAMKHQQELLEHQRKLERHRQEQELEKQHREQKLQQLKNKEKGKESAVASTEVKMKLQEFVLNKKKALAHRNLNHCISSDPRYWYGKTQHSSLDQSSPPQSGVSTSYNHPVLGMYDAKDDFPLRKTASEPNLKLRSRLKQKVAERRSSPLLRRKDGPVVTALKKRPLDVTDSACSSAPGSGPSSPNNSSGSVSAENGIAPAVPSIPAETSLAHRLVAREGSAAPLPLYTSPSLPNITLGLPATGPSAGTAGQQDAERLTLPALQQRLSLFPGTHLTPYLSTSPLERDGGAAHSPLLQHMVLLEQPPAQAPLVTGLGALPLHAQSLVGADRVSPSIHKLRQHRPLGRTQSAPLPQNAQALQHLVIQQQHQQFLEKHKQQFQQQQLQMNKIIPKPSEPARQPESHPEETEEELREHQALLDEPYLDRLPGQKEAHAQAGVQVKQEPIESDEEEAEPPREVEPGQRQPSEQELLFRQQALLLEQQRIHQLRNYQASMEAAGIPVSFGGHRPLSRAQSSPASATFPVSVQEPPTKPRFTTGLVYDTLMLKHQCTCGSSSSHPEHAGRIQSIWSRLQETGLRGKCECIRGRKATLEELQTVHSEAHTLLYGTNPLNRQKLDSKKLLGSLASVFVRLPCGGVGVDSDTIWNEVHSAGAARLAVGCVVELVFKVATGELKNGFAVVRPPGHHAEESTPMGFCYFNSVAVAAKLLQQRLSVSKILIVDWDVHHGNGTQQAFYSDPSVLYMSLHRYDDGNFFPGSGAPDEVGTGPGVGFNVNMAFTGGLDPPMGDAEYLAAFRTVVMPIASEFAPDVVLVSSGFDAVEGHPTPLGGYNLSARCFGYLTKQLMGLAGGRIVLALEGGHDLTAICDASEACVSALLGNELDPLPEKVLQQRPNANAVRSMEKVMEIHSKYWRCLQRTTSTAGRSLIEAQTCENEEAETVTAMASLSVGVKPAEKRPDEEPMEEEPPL
Histone deacetylase 5, sequence (Q9UQL6 whole entry, the tested form may be a part): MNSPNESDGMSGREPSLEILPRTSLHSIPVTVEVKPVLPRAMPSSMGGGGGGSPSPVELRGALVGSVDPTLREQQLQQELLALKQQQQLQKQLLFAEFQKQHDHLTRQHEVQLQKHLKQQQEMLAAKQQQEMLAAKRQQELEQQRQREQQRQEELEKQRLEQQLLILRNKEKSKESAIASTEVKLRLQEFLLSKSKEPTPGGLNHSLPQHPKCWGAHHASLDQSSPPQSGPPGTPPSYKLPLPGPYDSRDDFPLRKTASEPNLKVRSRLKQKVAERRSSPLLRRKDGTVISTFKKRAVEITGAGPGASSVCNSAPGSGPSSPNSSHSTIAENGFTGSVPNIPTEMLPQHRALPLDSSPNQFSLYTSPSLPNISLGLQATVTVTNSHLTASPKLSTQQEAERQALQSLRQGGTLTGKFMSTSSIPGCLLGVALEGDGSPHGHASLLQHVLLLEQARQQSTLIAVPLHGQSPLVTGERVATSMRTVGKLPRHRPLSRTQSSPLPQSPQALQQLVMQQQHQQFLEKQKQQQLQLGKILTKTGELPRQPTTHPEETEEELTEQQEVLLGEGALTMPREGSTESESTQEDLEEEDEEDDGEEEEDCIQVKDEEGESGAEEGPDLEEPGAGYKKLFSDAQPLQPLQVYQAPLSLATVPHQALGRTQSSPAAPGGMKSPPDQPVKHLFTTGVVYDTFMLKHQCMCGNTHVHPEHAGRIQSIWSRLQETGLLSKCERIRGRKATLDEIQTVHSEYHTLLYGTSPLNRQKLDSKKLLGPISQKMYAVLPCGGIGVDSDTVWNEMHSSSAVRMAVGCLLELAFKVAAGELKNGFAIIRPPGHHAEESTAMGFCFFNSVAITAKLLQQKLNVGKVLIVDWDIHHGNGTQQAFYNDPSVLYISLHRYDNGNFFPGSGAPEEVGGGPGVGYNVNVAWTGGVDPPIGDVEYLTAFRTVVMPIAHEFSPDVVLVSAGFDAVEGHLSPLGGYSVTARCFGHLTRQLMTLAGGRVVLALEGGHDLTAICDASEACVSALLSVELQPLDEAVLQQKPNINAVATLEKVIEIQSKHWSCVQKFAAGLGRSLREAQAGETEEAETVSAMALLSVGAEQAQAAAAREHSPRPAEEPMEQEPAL

As a reminder, the IC50 is the concentration at which inhibition is half-maximal. In general, GI50 refers to the concentration that inhibits growth by half. With `CCCNNC(=O)c1ccc(CNC(=O)c2cc3cnccc3[nH]2)cc1`, the values for the CC50 in test [1] and in test [2] were over 100 µM and 0.0582 µM, respectively. In addition, the 50% inhibitory concentration (IC50) in test [3], in test [6], in test [7], in test [8], in [9] and in test [10] was over 10 µM throughout. Besides, the GI50 in test [4] is 0.0236 µM; in test [5], 0.0512 µM.
In the case of `CCCNNC(=O)c1ccc(CNC(=O)/C=C/c2cccnc2)cc1`, the CC50 in [1] is over 100 µM; in test [2] it was 0.218 µM. Also, the IC50 in [3] is over 10 µM; in test [4] (MV4-11, 48 h), 0.0608 µM; in test [6], over 10 µM; in test [7], over 10 µM; in test [8] it was over 10 µM; in test [9] it was over 10 µM. In test [10], this molecule had an IC50 of over 10 µM. Besides, the concentration for 50% growth inhibition (GI50) in test [4] worked out at 0.0383 µM; in test [5] it was 0.0422 µM.

The record behind these values is ChEMBL document CHEMBL5505964, “HDAC/NAMPT dual inhibitors overcome initial drug-resistance in p53-null leukemia cells” (Eur J Med Chem, 2024).
